Measured values as given in patent publication US11718604B2, “4-amino-6-(1,3-benzodioxole)picolinates and their use as herbicides” (Dow AgroSciences LLC, priority 2018, dated 2023).

What was measured:
Format in all cases: in vivo
[1] = system: ABUTH: velvetleaf (Abutilon theophrasti); test: Post-emergent herbicidal test, velvetleaf; conditions: post-emergence, 336 h, 14 days after application, read-out: Visual Growth Reduction (%) 14 Days After Application ABUTH; for pest or weed control at 17.5 g/ha: 17.5 g ai/ha; for pest or weed control at 35 g/ha: 35 g ai/ha; for pest or weed control at 70 g/ha: 70 g ai/ha; for pest or weed control at 140 g/ha: 140 g ai/ha
How it was run: (§1)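 Visual injury rating, 0 (none) to 100% (complete kill), made 14 d after treatment relative to untreated plants. Foliar track-sprayer application at 187 L/ha to plants at the 1st-2nd true leaf stage; rates were twofold serial dilutions from the highest rate down to 1/16×.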

[2] = system: BRSNN: oilseed rape, canola (Brassica napus); test: Post-emergent herbicidal test, oilseed rape; conditions: post-emergence, 336 h, 14 days after application, read-out: Visual Growth Reduction (%) 14 Days After Application BRSNN; for pest or weed control at 17.5 g/ha: 17.5 g ai/ha; for pest or weed control at 35 g/ha: 35 g ai/ha; for pest or weed control at 70 g/ha: 70 g ai/ha; for pest or weed control at 140 g/ha: 140 g ai/ha
How it was run: as §1

[3] = system: CIRAR: Canada thistle (Cirsium arvense); test: Post-emergent herbicidal test, Canada thistle; conditions: post-emergence, 336 h, 14 days after application, read-out: Visual Growth Reduction (%) 14 Days After Application CIRAR; for pest or weed control at 17.5 g/ha: 17.5 g ai/ha; for pest or weed control at 35 g/ha: 35 g ai/ha; for pest or weed control at 70 g/ha: 70 g ai/ha; for pest or weed control at 140 g/ha: 140 g ai/ha
How it was run: as §1

[4] = system: EPHHL: wild poinsettia (Euphorbia heterophylla); test: Post-emergent herbicidal test, wild poinsettia; conditions: post-emergence, 336 h, 14 days after application, read-out: Visual Growth Reduction (%) 14 Days After Application EPHHL; for pest or weed control at 17.5 g/ha: 17.5 g ai/ha; for pest or weed control at 35 g/ha: 35 g ai/ha; for pest or weed control at 70 g/ha: 70 g ai/ha; for pest or weed control at 140 g/ha: 140 g ai/ha
How it was run: as §1

[5] = system: IPOHE: ivyleaf morningglory (Ipomoea hederacea); test: Post-emergent herbicidal test, ivyleaf morningglory; conditions: post-emergence, 336 h, 14 days after application, read-out: Visual Growth Reduction (%) 14 Days After Application IPOHE; for pest or weed control at 17.5 g/ha: 17.5 g ai/ha; for pest or weed control at 35 g/ha: 35 g ai/ha; for pest or weed control at 70 g/ha: 70 g ai/ha; for pest or weed control at 140 g/ha: 140 g ai/ha
How it was run: as §1

[6] = system: VIOTR: wild violet (Viola tricolor); test: Post-emergent herbicidal test, wild violet; conditions: post-emergence, 336 h, 14 days after application, read-out: Visual Growth Reduction (%) 14 Days After Application VIOTR; for pest or weed control at 17.5 g/ha: 17.5 g ai/ha; for pest or weed control at 35 g/ha: 35 g ai/ha; for pest or weed control at 70 g/ha: 70 g ai/ha; for pest or weed control at 140 g/ha: 140 g ai/ha
How it was run: as §1

[7] = system: CYPES: yellow nutsedge (Cyperus esculentus); test: Post-emergent herbicidal test, yellow nutsedge; conditions: post-emergence, 336 h, 14 days after application, read-out: Visual Growth Reduction (%) 14 Days After Application CYPES; for pest or weed control at 17.5 g/ha: 17.5 g ai/ha; for pest or weed control at 35 g/ha: 35 g ai/ha; for pest or weed control at 70 g/ha: 70 g ai/ha; for pest or weed control at 140 g/ha: 140 g ai/ha
How it was run: as §1

[8] = system: DIGSA: large crabgrass (Digitaria sanguinalis); test: Post-emergent herbicidal test, large crabgrass; conditions: post-emergence, 336 h, 14 days after application, read-out: Visual Growth Reduction (%) 14 Days After Application DIGSA; for pest or weed control at 17.5 g/ha: 17.5 g ai/ha; for pest or weed control at 35 g/ha: 35 g ai/ha; for pest or weed control at 70 g/ha: 70 g ai/ha; for pest or weed control at 140 g/ha: 140 g ai/ha
How it was run: as §1

[9] = system: ECHCG: barnyardgrass (Echinochloa crus-galli); test: Post-emergent herbicidal test, barnyardgrass; conditions: post-emergence, 336 h, 14 days after application, read-out: Visual Growth Reduction (%) 14 Days After Application ECHCG; for pest or weed control at 17.5 g/ha: 17.5 g ai/ha; for pest or weed control at 35 g/ha: 35 g ai/ha; for pest or weed control at 70 g/ha: 70 g ai/ha; for pest or weed control at 140 g/ha: 140 g ai/ha
How it was run: as §1

[10] = system: SETFA: giant foxtail (Setaria faberi); test: Post-emergent herbicidal test, giant foxtail; conditions: post-emergence, 336 h, 14 days after application, read-out: Visual Growth Reduction (%) 14 Days After Application SETFA; for pest or weed control at 17.5 g/ha: 17.5 g ai/ha; for pest or weed control at 35 g/ha: 35 g ai/ha; for pest or weed control at 70 g/ha: 70 g ai/ha; for pest or weed control at 140 g/ha: 140 g ai/ha
How it was run: as §1

[11] = system: SORVU: shattercane (Sorghum bicolor); test: Post-emergent herbicidal test, shattercane; conditions: post-emergence, 336 h, 14 days after application, read-out: Visual Growth Reduction (%) 14 Days After Application SORVU; for pest or weed control at 17.5 g/ha: 17.5 g ai/ha; for pest or weed control at 35 g/ha: 35 g ai/ha; for pest or weed control at 70 g/ha: 70 g ai/ha; for pest or weed control at 140 g/ha: 140 g ai/ha
How it was run: as §1

For COC(=O)c1nc(-c2ccc(F)c3c2OC(F)(F)O3)c(F)c(N)c1Cl [Compound 7], the pest or weed control at 17.5 g/ha [1] was 50%, the pest or weed control at 35 g/ha [1] was 70% and the pest or weed control at 70 g/ha [1] was 75%. For the same compound, the pest or weed control at 140 g/ha [1] was 85%, the pest or weed control at 17.5 g/ha [2] was 50% and the pest or weed control at 35 g/ha [2] was 60%. For the same compound, the pest or weed control at 70 g/ha [2] was 80%, the pest or weed control at 140 g/ha [2] was 85% and the pest or weed control at 17.5 g/ha [3] was 60%. For the same compound, the pest or weed control at 35 g/ha [3] was 70%, the pest or weed control at 70 g/ha [3] was 75% and the pest or weed control at 140 g/ha [3] was 80%. The pest or weed control at 17.5 g/ha [4] was 0%, the pest or weed control at 35 g/ha [4] was 0% and the pest or weed control at 70 g/ha [4] was 10%. It also gave a pest or weed control at 140 g/ha [4] of 20%, a pest or weed control at 17.5 g/ha [5] of 0% and a pest or weed control at 35 g/ha [5] of 0%. The pest or weed control at 70 g/ha [5] was 0%, the pest or weed control at 140 g/ha [5] was 0% and the pest or weed control at 17.5 g/ha [6] was 5%. For the same compound, the pest or weed control at 35 g/ha [6] was 10%, the pest or weed control at 70 g/ha [6] was 40% and the pest or weed control at 140 g/ha [6] was 50%. The pest or weed control at 17.5 g/ha [7] was 0%, the pest or weed control at 35 g/ha [7] was 10% and the pest or weed control at 70 g/ha [7] was 30%. It also gave a pest or weed control at 140 g/ha [7] of 40%, a pest or weed control at 17.5 g/ha [8] of 0% and a pest or weed control at 35 g/ha [8] of 0%. The pest or weed control at 70 g/ha [8] was 0%, the pest or weed control at 140 g/ha [8] was 0% and the pest or weed control at 17.5 g/ha [9] was 0%. The pest or weed control at 35 g/ha [9] was 0%, the pest or weed control at 70 g/ha [9] was 0% and the pest or weed control at 140 g/ha [9] was 0%. The pest or weed control at 17.5 g/ha [10] was 0%, the pest or weed control at 35 g/ha [10] was 0% and the pest or weed control at 70 g/ha [10] was 0%. It also gave a pest or weed control at 140 g/ha [10] of 10%, a pest or weed control at 17.5 g/ha [11] of 0% and a pest or weed control at 35 g/ha [11] of 0%. For the same compound, the pest or weed control at 70 g/ha [11] was 0% and the pest or weed control at 140 g/ha [11] was 0%.

Nc1c(F)c(-c2ccc(F)c3c2OC(F)(F)O3)nc(C(=O)O)c1Cl [Compound 8] showed a pest or weed control at 17.5 g/ha [1] of 30%, a pest or weed control at 35 g/ha [1] of 40% and a pest or weed control at 70 g/ha [1] of 60%. It also gave a pest or weed control at 140 g/ha [1] of 75%, a pest or weed control at 17.5 g/ha [2] of 70% and a pest or weed control at 35 g/ha [2] of 75%. For the same compound, the pest or weed control at 70 g/ha [2] was 85%, the pest or weed control at 140 g/ha [2] was 97% and the pest or weed control at 17.5 g/ha [3] was 20%. For the same compound, the pest or weed control at 35 g/ha [3] was 75%, the pest or weed control at 70 g/ha [3] was 80% and the pest or weed control at 140 g/ha [3] was 80%. For the same compound, the pest or weed control at 17.5 g/ha [4] was 0%, the pest or weed control at 35 g/ha [4] was 0% and the pest or weed control at 70 g/ha [4] was 0%. The pest or weed control at 140 g/ha [4] was 0%, the pest or weed control at 17.5 g/ha [5] was 0% and the pest or weed control at 35 g/ha [5] was 0%. For the same compound, the pest or weed control at 70 g/ha [5] was 10%, the pest or weed control at 140 g/ha [5] was 10% and the pest or weed control at 17.5 g/ha [6] was 0%. It also gave a pest or weed control at 35 g/ha [6] of 5%, a pest or weed control at 70 g/ha [6] of 15% and a pest or weed control at 140 g/ha [6] of 35%. It also gave a pest or weed control at 17.5 g/ha [7] of 0%, a pest or weed control at 35 g/ha [7] of 0% and a pest or weed control at 70 g/ha [7] of 0%. The pest or weed control at 140 g/ha [7] was 10%, the pest or weed control at 17.5 g/ha [8] was 0% and the pest or weed control at 35 g/ha [8] was 0%. For the same compound, the pest or weed control at 70 g/ha [8] was 0%, the pest or weed control at 140 g/ha [8] was 0% and the pest or weed control at 17.5 g/ha [9] was 0%. It also gave a pest or weed control at 35 g/ha [9] of 0%, a pest or weed control at 70 g/ha [9] of 0% and a pest or weed control at 140 g/ha [9] of 0%. It also gave a pest or weed control at 17.5 g/ha [10] of 0%, a pest or weed control at 35 g/ha [10] of 0% and a pest or weed control at 70 g/ha [10] of 0%. For the same compound, the pest or weed control at 140 g/ha [10] was 0%, the pest or weed control at 17.5 g/ha [11] was 0% and the pest or weed control at 35 g/ha [11] was 0%. It also gave a pest or weed control at 70 g/ha [11] of 0% and a pest or weed control at 140 g/ha [11] of 0%.
